Assays:
Format in all cases: biochemical
[1] = tested on: HDAC; test: HDAC fluorimetric assay kit (AK-500, Biomol), HeLa nuclear extract
Method: HDAC inhibitors were screened using an HDAC fluorimetric assay kit (AK-500, Biomol, Plymouth Meeting, Pa.). […] Each assay was setup as follows: Defrosted all kit components and kept on ice until use. Diluted HeLa nuclear extract 1:29 in Assay Buffer (50 mM Tris/Cl, pH 8.0, 137 mM NaCl, 2.7 mM KCl, 1 mM MgCl2). Prepared dilutions of Trichostatin A (TSA, positive control) and tested compounds in assay buffer (5× of final concentration). Diluted Fluor de LysTM Substrate in assay buffer to 100 uM (50 fold=2× final). Diluted Fluor de LysTM developer concentrate 20-fold (e.g. 50 μl plus 950 μl Assay Buffer) in cold assay buffer. Second, diluted the 0.2 mM Trichostatin A 100-fold in the 1× Developer (e.g. 10 μl in 1 ml; final Trichostatin A concentration in the 1× Developer=2 μM; final concentration after addition to HDAC/Substrate reaction=1 μM). Added Assay buffer, diluted trichostatin A or test inhibitor to appropriate wells of the microtiter plate. Added diluted HeLa extract or other HDAC sample to all wells except for negative controls. Allowed diluted Fluor de LysTM Substrate and the samples in the microtiter plate to equilibrate to assay temperature (e.g. 25 or 37° C. Initiated HDAC reactions by adding diluted substrate (25 μl) to each well and mixing thoroughly. Allowed HDAC reactions to proceed for 1 hour and then stopped them by addition of Fluor de LysTM Developer (50 μl). Incubated plate at room temperature (25° C.) for 10-15 min. Read samples in a microtiter-plate reading fluorimeter capable of excitation at a wavelength in the range 350-380 nm and detection of emitted light in the range 440-460 nm.

[2] = target: T1, CDK6/cyclinD3 (Homo sapiens, UniProt Q00534); test: CDK activity assay with p33 ATP, CDK6/cyclinD3; conditions: 1 μM ATP; read-out: CDK6/cyclinD IC50
T1 construct: N-terminal, 6His-tagged full-length human cdk6 (MW=38 kDa); 6His (N); made in house; host or cells: Sf21 cells
Method: CDK6/cyclinD3 (Accession Number for CDK6; GenBank X66365, for Cyclin D3; EMBL M90814):
N-terminal, 6His-tagged full-length human cdk6 (MW=38 kDa) complexed with N-terminal GST-tagged full-length human cyclin D3 (MW=59 kDa) were expressed in Sf21 cells. Recombinant protein complex was purified using glutathione-agarose and activated with CAK, and repurified with Ni2+/NTA-agarose column. Purity was measured to be at least 68%. Specific Activity was measured to be 39 U/mg, where one unit of cdk6/cyclinD3 activity is defined as 1 nmol phosphate incorporated into 0.1 mg/ml histone H1 per minute at 30° C. with a final ATP concentration of 100 μM. Enzyme was stored at concentration of 0.1 mg/ml in 50 mM Tris-HCl, pH 7.5, 270 mM sucrose, 150 mM NaCl, 1 mM benzamidine, 0.2 mM PMSF, 0.1% 2-mercaptoethanol, 0.1 mM EGTA, 0.03% Brij 35.

[3] = target: T2, CDK2/cyclinE (Homo sapiens, UniProt P24941); test: CDK activity assay with p33 ATP, CDK2/cyclinE; conditions: 1 μM ATP
T2 construct: C-terminal 6His-tagged, recombinant full-length CDK2 (MW=34 kDa); 6His (C); made in house; host or cells: Sf21 cells (baculovirus)
Method: CDK2/cyclinE (Accession Number for CDK2; EMBL M68520, for cyclinE1; GenBank NM_001238):
C-terminal 6His-tagged, recombinant full-length CDK2 (MW=34 kDa) in complex with N-terminal GST-tagged, recombinant full-length cyclinE1 (MW=74 kDa) were expressed with baculovirus system in Sf21 cells. Recombinant proteins were purified using Ni2+/NTA agarose and the purity of recombinant protein complex was measured to be around 76% by SDS-PAGE and Coomassie blue staining. Specific Activity of recombinant CDK2/cyclinE was 1336 U/mg, where one unit of CDK2/cylinE1 activity is defined as 1 nmol phosphate incorporated into 0.1 mg/ml histone H1 per minute at 30° C. with a final ATP concentration of 100 μM. Enzyme was stored with concentration of 0.1 mg/ml in 50 mM Tris/HCl pH 7.5, 150 mM NaCl, 0.03% Brij-35, 0.1 mM EGTA, 0.2 mM PMSF, 1 mM benzamidine, 0.1% 2-mercaptoethanol, 270 mM sucrose.

T1 sequence (Q00534 whole entry): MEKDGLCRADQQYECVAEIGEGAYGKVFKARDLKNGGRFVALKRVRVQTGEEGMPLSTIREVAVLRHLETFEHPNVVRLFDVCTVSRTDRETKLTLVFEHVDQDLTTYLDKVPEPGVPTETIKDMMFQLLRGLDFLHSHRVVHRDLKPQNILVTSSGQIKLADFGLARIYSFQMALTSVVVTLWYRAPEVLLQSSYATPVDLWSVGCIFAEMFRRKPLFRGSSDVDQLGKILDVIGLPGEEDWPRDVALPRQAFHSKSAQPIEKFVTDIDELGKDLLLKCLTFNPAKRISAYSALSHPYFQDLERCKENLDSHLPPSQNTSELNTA
T1 sequence (P30281 whole entry partner): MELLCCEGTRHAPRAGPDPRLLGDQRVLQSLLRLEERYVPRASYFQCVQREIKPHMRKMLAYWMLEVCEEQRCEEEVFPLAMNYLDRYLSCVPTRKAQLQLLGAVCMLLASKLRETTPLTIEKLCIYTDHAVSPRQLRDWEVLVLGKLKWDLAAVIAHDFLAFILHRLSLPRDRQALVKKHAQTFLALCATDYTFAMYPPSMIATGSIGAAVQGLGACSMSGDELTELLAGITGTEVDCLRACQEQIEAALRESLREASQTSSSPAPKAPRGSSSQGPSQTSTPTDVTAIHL

IC50 [1] [nM]	IC50 [2] [nM]	IC50 [3] [nM]	SMILES
100 to 1000	100 to 1000	< 100	CC(C)(C)c1cnc(CSc2cnc(NC(=O)CCCC(=O)NO)s2)o1 [Compound 5, N^1-(5-((5-tert-butyloxazol-2-yl)methylthio)thiazol-2-yl)-N^5-hydroxyglutaramide]
100 to 1000	100 to 1000	< 100	CC(C)(C)c1cnc(CSc2cnc(NC(=O)CCCCC(=O)NO)s2)o1 [Compound 6, N^1-(5-((5-tert-butyloxazol-2-yl)methylthio)-thiazol-2-yl)-N^6-hydroxyadipamide]
> 10000	100 to 1000	< 100	CC(C)(C)c1cnc(CSc2cnc(NC(=O)CCCNCCC(=O)NO)s2)o1 [Compound 13, N-(5-((5-tert-butyloxazol-2-yl)methylthio)thiazol-2-yl)-4-(3-(hydroxyamino)-3-oxopropylamino)butanamide]

Source: patent publication US8563741B2, “CDK inhibitors containing a zinc binding moiety” (Curis, Inc., priority 2007, dated 2013)
